Results: PMC5004205, “Spiro[pyrrolidine-3, 3´-oxindole] as potent anti-breast cancer compounds: Their design, synthesis, biological evaluation and cellular target identification” (Scientific Reports, 2016)
Entries after “also recorded” stand apart in the source; their conditions may differ.

Experiments:
Assay type in all cases: cell-based
MCF10A cells = experiment: MTT cytotoxicity assay, MCF10A
Procedure: MCF10A was obtained from American Tissue Type Culture Collection (ATCC, Bethesda, MD). All cells were grown in a humidified atmosphere at 37 °C, with 5% CO2 in air.
(§1) The MTT colorimetric viability assay was performed to evaluate the anticancer effect of compounds. 30,000 cells/100 μl of media were seeded per well and allowed to stretch and adhere overnight at 37 °C. Following day media was removed and 100 μl fresh media was added to the grown cells. Adhered cells were then treated with the compounds 5a-m dissolved in DMSO in triplicates at a standard concentration of 50 μM for 48 hours. There was one positive and one negative control along with 13 compounds. The results were measured all in triplicate in 45 wells of 96 well plate at each time point. Cytotoxic effect was evaluated using ability of live cells to cleave MTT ((3-[4, 5- dimethylthiazol-2-yl]-2, 5-diphenyl tetrazolium bromide)) (Sigma-Aldrich, St Louis, MO, USA), into formazan crystals. Post 48 hours of treatment, 10 μl of MTT (5 mg/ml in PBS) was added to the cells and incubated for 4 hours in dark at 37 °C. The violet colored crystals formed were then dissolved in 100 μl DMSO solvent (Dimethyl Sulfoxide, Sigma-Aldrich, St. Louis, MO, USA). The colorimetric assay was read by a MultiMode Plate Reader (Bio-Rad) at 595 nm. Percentage of Inhibition of drug was calculated by following formula: […]
Cytotoxicity assay with MCF 10A
Experiment :MCF10A cytotoxicity assay 48 hours
Raw Data{Wavelength:595.0}
O.D1 O.D2 O.D3 AVG CTRL-TEST CTRL-TST/CTRL*100
(1 picture or pasted object on this page, not shown here)

COS-7 cells = experiment: MTT colorimetric cell viability assay, COS-7
Procedure: as §1

MCF-7 cells = experiment: DNA fragmentation (DNA-ladder) assay; conditions: MCF-7, gel electrophoresis
Procedure: The DMSO (dimethyl sulphoxide)–SDS (sodium dodecyl sulphate)–TE (Tris-EDTA) method: 2 million MCF-7cells were taken as starting material for DNA isolation. Cells were dislodged with Trypsin-EDTA and washed with 1 X PBS. DMSO was added directly to the cell pellet (100 μl) and mixed well by pipetting. TE buffer (pH 7.4) with 2% SDS was added into the mixture with same volume, followed by pipetting. The solution was centrifuged at 3000 rpm at 4 °C and 30 μL of the supernatant was loaded on agarose gel to check the effect of drugs on DNA molecule.

**Q.** Which results are given for `O=C1Nc2ccccc2C12CCNC2c1ccccc1` (stereo not drawn) [Compound 5l]?
**A.** Effect on proliferation of healthy MCF10A cells (MCF10A cells): did not inhibit the proliferation; also recorded: little or no effect; CTRL-TST/CTRL*100 MCF10A cytotoxicity (MCF10A cells; 48 hours, 595 nm): 0.08; Percentage inhibition MCF10A (MCF10A cells; MTT, 48 hours): 0.08%; Inhibition of proliferation of healthy COS-7 cells (COS-7 cells): did not inhibit the proliferation; inhibition at 50 µM (COS-7 cells; Chlorocebus aethiops, COS-7, 50 μM, MTT, triplicates, read-out: Percentage inhibition COS-7): 15.4 ± 0.18%; DNA fragmentation pattern / mode of cell death (MCF-7 cells): smearing of DNA fragments
